Like-named read-outs stand apart in the source and are kept apart here.
Legend:
infarct size = conditions: continuous arterial infusion over a six-hour period, free (non-liposomal); cited from earlier work
restenosis = conditions: intracoronary infusion over a 24-hour period; cited from earlier work
LPS-induced death = assay: Rat endotoxemia model, LPS-induced mortality; format: in vivo, Male Sprague-Dawley rats; conditions: 50 µg/kg LPS i.v. at time 0, PGE1 40 µg/kg i.v. simultaneously
[1] = test system: leukocyte extravasation from the peripheral vasculature to sites of inflammation; assay: Rat subcutaneous air pouch, fMLP-induced inflammation; format: in vivo, Male Sprague-Dawley rats; conditions: visual examination of post-stimulation air pouch lining
Protocol: • Figure 1. Release of PGE1 from MLVs. The release of prostaglandin E1 (PGE1) from multilamellar vesicles (MLVs) comprising egg phosphatidylcholine (EPC) or dipalmitoyl phosphatidylcholine (DPPC) formed in 50 mM citrate buffer, pH 4.5, and then incubated at room temperature in pH 7.1 buffer for the indicated amount of time, is set forth. X-axis: time (minutes); y-axis: percent PGE1 retained in pelleted liposomes. • Figure 2. Rat Air Pouch Studies. Liposomal PGE1 formulations inhibit the extravasation of leukocytes from the vasculature to the rat air pouch. Subcutaneous air pouches were formed in male Sprague-Dawley rats. fMLP (2.15 µg) was injected directly into the air pouch at time 0, and free or liposomal PGE1 was simultaneously injected intravenously. After six hours, the air pouch exudate was collected and the air pouch total cell population determined. For each treatment group, n=4. […] After six hours, the air pouch exudate was collected, and the air pouch total cell population determined. […] After six hours, the air pouch exudate was collected, and the air pouch total cell population determined. […] After six and 24 hours, the air pouch exudates were collected, and the air pouch total cell populations were determined. […]

[2] = test system: acute myocardial infarction; conditions: slow intracoronary infusion together with intracoronary streptokinase; cited from earlier work
adjuvant arthritis = assay: Rat adjuvant arthritis (complete Freund's adjuvant); format: in vivo, Male Lewis rats
[3] = cited from earlier work

SMILES | reducing the infarct size (infarct size) | reduction of the rate of restenosis six months after angioplasty versus untreated control group (restenosis) [%] | LPS induced mortality (LPS-induced death) | vascular reactivity and number of leukocytes invading the pouch lining [1] | clinical results versus intracoronary streptokinase alone [2] | inhibition of arthritis progression, treatment begun 10 days post-adjuvant (adjuvant arthritis; 10 µg/kg beginning at day 10, every second day) | progression of adjuvant arthritis (weight gain, joint edema) (adjuvant arthritis; 10 µg/kg, injections every second day) | subjective scoring of general health and mobility (adjuvant arthritis; 10 µg/kg, scored at day 14) | bioavailability ([3]; free PGE1) [min] | bioavailability ([3]; free stable prostaglandin analog) [min]
CCCCC[C@H](O)/C=C/[C@H]1[C@H](O)CC(=O)[C@@H]1CCCCCCC(=O)O [free PGE1, prostaglandin E1] | scant effect | ~50 | increased both the rate and magnitude of LPS induced mortality | reduction in vascular reactivity and a concurrent reduction in the number of leukocytes invading the pouch lining | positive clinical results | still receive protection horn disease progression, although the inhibition of arthritis progression was not as profound | attenuated the progression of adjuvant arthritis | maintenance of general health and mobility | < 15 | –
CCCCCC(C)(O)/C=C/[C@H]1[C@H](O)CC(=O)[C@@H]1CCCCCCC(=O)O (some centres unmarked) [15-methyl-PGE1] | – | – | – | – | – | – | – | – | – | ≥ 480
CCCCC[C@H](O)/C=C/[C@@H]1[C@H]2C/C(=C/CCCC(=O)O)O[C@H]2C[C@H]1O [PGI2] | scant effect | – | – | – | – | – | – | – | – | –

From EP0726764B1, “MULTILAMELLAR LIPOSOMAL ARACHIDONIC ACID METABOLITE FORMULATIONS” (THE LIPOSOME COMPANY, INC., priority 1993, dated 1995)
